Test results as given in patent US20130217664A1, “NOVEL COMPOUNDS USEFUL FOR THE TREATMENT OF DEGENERATIVE AND INFLAMMATORY DISEASES” (priority 2012, published 2013).

Columns and labels:
Format in all cases: biochemical
human JAK1 = target: T1, human JAK1 (Homo sapiens, UniProt P23458); experiment: JAK1 inhibition assay (polyGT substrate / Ulight-JAK1 peptide); conditions: recombinant human JAK1 catalytic domain; polyGT or Ulight-JAK1 peptide assay
T1 construct: catalytic domain, amino acids 866-1154; catalog number PV4774; purchased Invitrogen PV4774
T1 sequence (P23458 866-1154): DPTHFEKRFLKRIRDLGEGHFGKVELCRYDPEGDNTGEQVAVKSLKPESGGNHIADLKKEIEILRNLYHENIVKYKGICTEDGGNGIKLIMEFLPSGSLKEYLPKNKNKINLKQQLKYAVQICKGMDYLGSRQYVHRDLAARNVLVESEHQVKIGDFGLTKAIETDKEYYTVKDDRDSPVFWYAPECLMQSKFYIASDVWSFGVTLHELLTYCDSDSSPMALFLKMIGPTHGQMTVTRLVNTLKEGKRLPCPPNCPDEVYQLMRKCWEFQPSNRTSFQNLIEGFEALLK
Method in brief: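 Two formats. PolyGT radiometric: 45 min at 30 °C, stopped with phosphoric acid, counted as cpm. Ulight-JAK1 peptide: 60 min at room temperature, stopped with Eu-anti-phosphotyrosine/EDTA, read as RFU. Percent inhibition normalised to vehicle and 10 μM staurosporine.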

human TYK2 = target: T2, human TYK2 (Homo sapiens, UniProt P29597); experiment: TYK2 inhibition assay; conditions: recombinant human TYK2 catalytic domain, polyGT substrate
T2 construct: catalytic domain (amino acids 871-1187; catalog number 08-147); purchased Carna Biosciences 08-147
T2 sequence (P29597 871-1187): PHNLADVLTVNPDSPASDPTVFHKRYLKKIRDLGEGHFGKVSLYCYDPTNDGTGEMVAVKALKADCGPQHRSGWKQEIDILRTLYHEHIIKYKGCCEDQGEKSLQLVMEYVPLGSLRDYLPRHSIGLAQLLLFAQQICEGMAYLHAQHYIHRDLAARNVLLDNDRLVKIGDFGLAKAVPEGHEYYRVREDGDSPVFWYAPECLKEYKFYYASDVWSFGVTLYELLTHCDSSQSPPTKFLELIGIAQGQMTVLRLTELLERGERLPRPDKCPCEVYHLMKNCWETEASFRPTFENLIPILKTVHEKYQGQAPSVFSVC
Experimental: 1.4 TYK2 Inhibition Assay
After 90 min at 30° C., reactions were stopped by adding 25 μL/well of 150 mM phosphoric acid. […] Plates were washed 6 times with 300 μL per well of a 75 mM phosphoric acid solution and the bottom of the plates was sealed. 40 μL/well of Microscint-20 was added, the top of the plates was sealed and readout was performed using the Topcount (Perkin Elmer). Kinase activity was calculated by subtracting counts per min (cpm) obtained in the presence of a positive control inhibitor (10 μM staurosporine) from cpm obtained in the presence of vehicle. The ability of a test compound to inhibit this activity was determined as:
(§1) Percentage inhibition=((cpm determined for sample with test compound present−cpm determined for sample with positive control inhibitor)divided by(cpm determined in the presence of vehicle−cpm determined for sample with positive control inhibitor))*100.
Dose dilution series were prepared for the compounds enabling the testing of dose-response effects in the TYK2 assay and the calculation of the IC50 for each compound.

human JAK2 = target: T3, human JAK2 (Homo sapiens, UniProt O60674); experiment: JAK2 inhibition assay (polyGT substrate / Ulight-JAK1 peptide); conditions: recombinant human JAK2 catalytic domain; polyGT or Ulight-JAK1 peptide assay
T3 construct: catalytic domain (amino acids 808-1132; catalog number PV4210); GST; purchased Invitrogen PV4210
T3 sequence (O60674 808-1132): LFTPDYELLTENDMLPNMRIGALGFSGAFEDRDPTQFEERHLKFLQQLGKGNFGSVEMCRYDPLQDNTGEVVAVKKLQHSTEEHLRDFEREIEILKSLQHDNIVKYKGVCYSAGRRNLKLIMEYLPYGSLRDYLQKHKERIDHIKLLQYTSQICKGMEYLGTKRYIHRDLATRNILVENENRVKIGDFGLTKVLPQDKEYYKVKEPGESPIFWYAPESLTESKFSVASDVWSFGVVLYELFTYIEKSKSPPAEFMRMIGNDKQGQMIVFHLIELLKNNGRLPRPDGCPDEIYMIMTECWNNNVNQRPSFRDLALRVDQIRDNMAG
Method in brief: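 Radiometric: 0.025 mU JAK2 with 2.5 μg polyGT, 1 μM ATP plus ^33P-ATP in MOPS pH 7.5 buffer, 1% DMSO, 90 min at 30° C.; filter counting. Alternative TR-FRET format with Ulight-JAK1 peptide, 60 min at room temperature, Eu-anti-phosphotyrosine detection.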

human JAK3 = target: T4, human JAK3 (Homo sapiens, UniProt P52333); experiment: JAK3 inhibition assay; conditions: recombinant human JAK3 catalytic domain; polyGT substrate
T4 construct: catalytic domain (amino acids 781-1124; catalog number PV3855); purchased Invitrogen PV3855
T4 sequence (P52333 781-1124): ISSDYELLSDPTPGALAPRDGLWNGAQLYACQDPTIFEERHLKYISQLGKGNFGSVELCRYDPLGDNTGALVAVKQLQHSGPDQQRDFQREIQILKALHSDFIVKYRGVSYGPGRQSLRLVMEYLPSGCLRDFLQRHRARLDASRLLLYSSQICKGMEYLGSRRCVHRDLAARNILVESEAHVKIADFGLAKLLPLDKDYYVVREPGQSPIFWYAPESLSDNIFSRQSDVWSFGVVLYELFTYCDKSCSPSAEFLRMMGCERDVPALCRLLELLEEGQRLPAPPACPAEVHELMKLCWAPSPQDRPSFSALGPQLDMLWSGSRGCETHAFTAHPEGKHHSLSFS
Experimental: 1.3 JAK3 Inhibition Assay
0.5 ng JAK3 protein was incubated with 2.5 μg polyGT substrate (Sigma catalog number P0275) in kinase reaction buffer (25 mM Tris pH 7.5, 0.5 mM EGTA, 10 mM MgCl2, 2.5 mM DTT, 0.5 mM Na3VO4, 5 mM b-glycerolphosphate, 0.01% Triton X-100, 1 μM non-radioactive ATP, 0.25 μCi 33P-gamma-ATP (GE Healthcare, catalog number AH9968) final concentrations) with or without 5 μL containing test compound or vehicle (DMSO, 1% final concentration), in a total volume of 25 μL, in a polypropylene 96-well plate (Greiner, V-bottom). After 45 min at 30° C., reactions were stopped by adding 25 μL/well of 150 mM phosphoric acid. […] Plates were washed 6 times with 300 μL per well of a 75 mM phosphoric acid solution and the bottom of the plates was sealed. 40 μL/well of Microscint-20 was added, the top of the plates was sealed and readout was performed using the Topcount (Perkin Elmer). Kinase activity was calculated by subtracting counts per min (cpm) obtained in the presence of a positive control inhibitor (10 μM staurosporine) from cpm obtained in the presence of vehicle. The ability of a test compound to inhibit this activity was determined as:
as §1
Dose dilution series were prepared for the compounds enabling the testing of dose-response effects in the JAK3 assay and the calculation of the IC50 for each compound. Each compound was routinely tested at concentration of 20 μM followed by a 1/5 serial dilution, 10 points in a final concentration of 1% DMSO.

| IC50 (human JAK1) | IC50 (human TYK2) | IC50 (human JAK2) | IC50 (human JAK3) | SMILES |
| --- | --- | --- | --- | --- |
| > 1000 nM | > 1000 nM | > 1000 nM | > 1000 nM | CCn1nc(C)cc1N(C)c1cc2c(cn1)ncn2C [Compound 305, (2-Ethyl-5-methyl-2H-pyrazol-3-yl)-methyl-(1-methyl-1H-imidazo[4,5-c]pyridin-6-yl)-amine] |
| > 1000 nM | > 1000 nM | > 1000 nM | > 1000 nM | CN(c1cc2c(cn1)ncn2C)c1cc(C2CC2)nn1C [Compound 306, (5-Cyclopropyl-2-methyl-2H-pyrazol-3-yl)-methyl-(1-methyl-1H-imidazo[4,5-c]pyridin-6-yl)-amine] |
| > 1000 nM | > 1000 nM | > 1000 nM | > 1000 nM | CCc1cn(C2(CC#N)CN(C(=O)OC(C)(C)C)C2)nc1N(C)c1cc2c(cn1)ncn2C [Compound 308, 3-Cyanomethyl-3-{4-ethyl-3-[methyl-(1-methyl-1H-imidazo[4,5-c]pyridin-6-yl)-amino]-pyrazol-1-yl}-azetidine-1-carboxylic acid tert-butyl ester] |
| > 1000 nM | > 1000 nM | > 1000 nM | > 1000 nM | CCc1cn(C2(CC#N)CNC2)nc1N(C)c1cc2c(cn1)ncn2C [Compound 309, (3-{4-Ethyl-3-[methyl-(1-methyl-1H-imidazo[4,5-c]pyridin-6-yl)-amino]-pyrazol-1-yl}-azetidin-3-yl)-acetonitrile] |
| > 1000 nM | > 1000 nM | > 1000 nM | > 1000 nM | CCc1cn(C2(CC#N)CN(S(C)(=O)=O)C2)nc1N(C)c1cc2c(cn1)ncn2C [Compound 310, (3-{4-Ethyl-3-[methyl-(1-methyl-1H-imidazo[4,5-c]pyridin-6-yl)-mino]-pyrazol-1-yl}-1-methanesulfonyl-azetidin-3-yl)-acetonitrile] |
| 0.01 to 100 nM | 0.01 to 100 nM | 101 to 500 nM | 0.01 to 100 nM | CCc1cc(CN(C)S(C)(=O)=O)ncc1N(C)c1cc2c(cn1)ncn2C [Compound 317, N-{4-Ethyl-5-[methyl-(1-methyl-1H-imidazo[4,5-c]pyridin-6-yl)-amino]-pyridin-2-ylmethyl}-N-methyl-methane sulfonamide] |
| 101 to 500 nM | > 1000 nM | 501 to 1000 nM | > 1000 nM | CCc1cc(N2CCCC2=O)ncc1N(C)c1cc2c(cn1)ncn2C [Compound 318, 1-{4-Ethyl-5-[methyl-(1-methyl-1H-imidazo[4,5-c]pyridin-6-yl)-amino]-pyridin-2-yl}-pyrrolidin-2-one] |
| > 1000 nM | > 1000 nM | > 1000 nM | > 1000 nM | CCc1cc(C#N)c(C(F)(F)F)cc1N(C)c1cc2c(cn1)ncn2C [Compound 321, 5-Ethyl-4-[methyl-(1-methyl-1H-imidazo[4,5-c]pyridin-6-yl)-amino]-2-trifluoromethyl-benzonitrile] |
| 0.01 to 100 nM | > 1000 nM | 501 to 1000 nM | > 1000 nM | CCc1cc(C2CN(C(=O)CC#N)C2)ncc1N(C)c1cc2c(cn1)ncn2C [Compound 335, 3-(3-{4-Ethyl-5-[methyl-(1-methyl-1H-imidazo[4,5-c]pyridin-6-yl)-amino]-pyridin-2-yl}-azetidin-1-yl)-3-oxo-propionitrile] |
| 0.01 to 100 nM | > 1000 nM | > 1000 nM | > 1000 nM | CCC(=O)N1CC(c2cc(CC)c(N(C)c3cc4c(cn3)ncn4C)cn2)C1 [Compound 336, 1-(3-{4-Ethyl-5-[methyl-(1-methyl-1H-imidazo[4,5-c]pyridin-6-yl)-amino]-pyridin-2-yl}-azetidin-1-yl)-propan-1-one] |
| 501 to 1000 nM | > 1000 nM | > 1000 nM | > 1000 nM | CCc1cc(C2CN(C(=O)CCC(F)(F)F)C2)ncc1N(C)c1cc2c(cn1)ncn2C [Compound 338, 1-(3-{4-Ethyl-5-[methyl-(1-methyl-1H-imidazo[4,5-c]pyridin-6-yl)-amino]-pyridin-2-yl}-azetidin-1-yl)-4,4,4-trifluoro-butan-1-one] |
| 0.01 to 100 nM | > 1000 nM | 101 to 500 nM | > 1000 nM | CCc1cc(C2CN(C(=O)OC)C2)ncc1N(C)c1cc2c(cn1)ncn2C [Compound 339, 3-{4-Ethyl-5-[methyl-(1-methyl-1H-imidazo[4,5-c]pyridin-6-yl)-amino]-pyridin-2-yl}-azetidine-1-carboxylic acid methyl ester] |
| 101 to 500 nM | > 1000 nM | > 1000 nM | > 1000 nM | CCc1cc(C2CN(C(=O)C3CC(F)(F)C3)C2)ncc1N(C)c1cc2c(cn1)ncn2C [Compound 340] |
| 101 to 500 nM | > 1000 nM | 501 to 1000 nM | > 1000 nM | CN(c1ccc(/C=C/C#N)cc1)c1cc2c(cn1)ncn2C [Compound 345, (E)-3-{4-[Methyl-(1-methyl-1H-imidazo[4,5-c]pyridin-6-yl)-amino]-phenyl}-acrylonitrile] |
| 101 to 500 nM | > 1000 nM | 501 to 1000 nM | > 1000 nM | CCc1cc(C2CN(C(=O)C3(C#N)CC3)C2)ccc1N(C)c1cc2c(cn1)ncn2C [Compound 348, 1-(3-{3-Ethyl-4-[methyl-(1-methyl-1H-imidazo[4,5-c]pyridin-6-yl)-amino]-phenyl}-azetidine-1-carbonyl)-cyclopropanecarbonitrile] |
| 0.01 to 100 nM | 101 to 500 nM | 0.01 to 100 nM | 101 to 500 nM | CN(c1cc2c(cn1)ncn2C)c1ccc(CN(CC#N)S(C)(=O)=O)cc1F [Compound 355] |
| 101 to 500 nM | > 1000 nM | 101 to 500 nM | > 1000 nM | COCN(Cc1ccc(N(C)c2cc3c(cn2)ncn3C)c(F)c1)S(C)(=O)=O [Compound 359, N-{3-Fluoro-4-[methyl-(1-methyl-1H-imidazo[4,5-c]pyridin-6-yl)-amino]-benzyl}-N-methoxymethyl-methanesulfonamide] |
| 101 to 500 nM | > 1000 nM | 101 to 500 nM | > 1000 nM | CN(c1cc2c(cn1)ncn2C)c1ccc(CN(CC2CC2)S(C)(=O)=O)cc1F [Compound 360] |
| 501 to 1000 nM | > 1000 nM | > 1000 nM | > 1000 nM | CN(c1cc2c(cn1)ncn2C)c1ccc(C2CN(C(=O)N3CCC3)C2)cc1OC(F)F [Compound 366, Azetidin-1-yl-(3-{3-difluoromethoxy-4-[methyl-(1-methyl-1H-imidazo[4,5-c]pyridin-6-yl)-amino]-phenyl}-azetidin-1-yl)-methanone] |
| 501 to 1000 nM | > 1000 nM | > 1000 nM | > 1000 nM | CN(c1cc2c(cn1)ncn2C)c1ccc(C2CN(C(=O)N3CCCCC3)C2)cc1OC(F)F [Compound 367, (3-{3-Difluoromethoxy-4-[methyl-(1-methyl-1H-imidazo[4,5-c]pyridin-6-yl)-amino]-phenyl}-azetidin-1-yl)-piperidin-1-yl-methanone] |
| 501 to 1000 nM | > 1000 nM | > 1000 nM | > 1000 nM | CN(c1cc2c(cn1)ncn2C)c1ccc(C2CN(C(=O)N3CCOCC3)C2)cc1OC(F)F [Compound 368] |
